Tests used:
Assay in all cases: relative viability (nuclei count vs DMSO), 5 days (fraction); higher = more cells survive
Bosutinib + AZD7762 = compound: COc1cc(Nc2c(C#N)cnc3cc(OCCCN4CCN(C)CC4)c(OC)cc23)c(Cl)cc1Cl [Bosutinib] + NC(=O)Nc1cc(-c2cccc(F)c2)sc1C(=O)N[C@H]1CCCNC1 [AZD7762] (partner 0.2 µM)
How it was run: (§1)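 Medians of duplicate plates are given as relative viability. That measure is the nuclei count in treated wells divided by the count in vehicle wells. Counts were taken on 4× images of lung cancer cell lines in 1536-well plates, 5 days after pin-tool dosing the day after seeding with one drug alone or a fixed anchor-drug dose plus five library-drug doses (not always all listed) in √10 steps.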

Bosutinib + Phenformin = compound: COc1cc(Nc2c(C#N)cnc3cc(OCCCN4CCN(C)CC4)c(OC)cc23)c(Cl)cc1Cl [Bosutinib] + N=C(N)NC(=N)NCCc1ccccc1 [Phenformin] (partner 250 µM)
How it was run: as §1

Bosutinib + Alpelisib = compound: COc1cc(Nc2c(C#N)cnc3cc(OCCCN4CCN(C)CC4)c(OC)cc23)c(Cl)cc1Cl [Bosutinib] + Cc1nc(NC(=O)N2CCC[C@H]2C(N)=O)sc1-c1ccnc(C(C)(C)C(F)(F)F)c1 [Alpelisib] (partner 2 µM)
How it was run: as §1

Bosutinib + Dasatinib = compound: COc1cc(Nc2c(C#N)cnc3cc(OCCCN4CCN(C)CC4)c(OC)cc23)c(Cl)cc1Cl [Bosutinib] + Cc1nc(Nc2ncc(C(=O)Nc3c(C)cccc3Cl)s2)cc(N2CCN(CCO)CC2)n1 [Dasatinib] (partner 0.075 µM)
How it was run: as §1

Bosutinib + Lapatinib = compound: COc1cc(Nc2c(C#N)cnc3cc(OCCCN4CCN(C)CC4)c(OC)cc23)c(Cl)cc1Cl [Bosutinib] + CS(=O)(=O)CCNCc1ccc(-c2ccc3ncnc(Nc4ccc(OCc5cccc(F)c5)c(Cl)c4)c3c2)o1 [Lapatinib] (partner 2 µM)
How it was run: as §1

Row | Cell Line | relative viability (Bosutinib + AZD7762; first compound 0.01 µM) | relative viability (Bosutinib + AZD7762; first compound 0.03162 µM) | relative viability (Bosutinib + AZD7762; first compound 0.1 µM) | relative viability (Bosutinib + AZD7762; first compound 1 µM) | relative viability (Bosutinib + Phenformin; first compound 0.01 µM) | relative viability (Bosutinib + Phenformin; first compound 0.03162 µM) | relative viability (Bosutinib + Phenformin; first compound 0.1 µM) | relative viability (Bosutinib + Phenformin; first compound 1 µM) | relative viability (Bosutinib + Alpelisib; first compound 0.01 µM) | relative viability (Bosutinib + Alpelisib; first compound 0.03162 µM) | relative viability (Bosutinib + Alpelisib; first compound 0.1 µM) | relative viability (Bosutinib + Alpelisib; first compound 1 µM) | relative viability (Bosutinib + Dasatinib; first compound 0.01 µM) | relative viability (Bosutinib + Dasatinib; first compound 0.03162 µM) | relative viability (Bosutinib + Dasatinib; first compound 0.1 µM) | relative viability (Bosutinib + Dasatinib; first compound 1 µM) | relative viability (Bosutinib + Lapatinib; first compound 0.01 µM) | relative viability (Bosutinib + Lapatinib; first compound 0.03162 µM) | relative viability (Bosutinib + Lapatinib; first compound 0.1 µM) | relative viability (Bosutinib + Lapatinib; first compound 1 µM)
1 | NCI-H3122 | 1.01 | 0.884 | 0.947 | 0.975 | 0.399 | 0.375 | 0.35 | 0.3 | 0.769 | 0.797 | 0.821 | 0.993 | 0.894 | 0.716 | 0.768 | 0.781 | 0.99 | 1.05 | 1.02 | 0.933
2 | PC-3 [JPC-3] | 0.787 | 0.738 | 0.689 | 0.641 | 0.481 | 0.506 | 0.43 | 0.441 | 0.962 | 1.03 | 1.02 | 0.937 | 1.04 | 0.931 | 0.996 | 0.834 | 0.432 | 0.428 | 0.431 | 0.505
3 | PC-14 | 0.351 | 0.284 | 0.287 | 0.193 | 0.539 | 0.585 | 0.5 | 0.277 | 0.91 | 0.9 | 0.828 | 0.323 | 0.282 | 0.239 | 0.238 | 0.0662 | 0.35 | 0.309 | 0.298 | 0.227
4 | RERF-LC-KJ | 0.979 | 0.982 | 1.07 | 0.877 | 0.407 | 0.427 | 0.42 | 0.387 | 0.702 | 0.834 | 0.756 | 0.678 | 0.746 | 0.882 | 0.826 | 0.735 | 0.836 | 0.832 | 0.878 | 0.905

— the supplement of paper PMC10307832
